Test results published in US20070196902A1, “Method of detecting AZT resistance in HIV” (University of Pittsburgh, priority 2006, published 2007).

Experiments:
[1] = test system: HIVLAI RT 67N/70R/215F/371V; assay: Drug susceptibility assay in P4/R5 cells, site-directed mutant; type: cell-based, HIV-1
Description: (§1) Drug susceptibility assays. NRTI susceptibility was determined in P4/R5 cells as described previously (Parikh, U. M., et al. 2005. Antimicrob. Agents Chemother. 49:1139-44). Briefly, threefold dilutions of inhibitor were added to P4/R5 cells in triplicate and cells were infected with an amount of virus that produced 100 relative units of light (RLU) in no drug, virus control wells. After 48 hours, the cells were lysed (Gal-Screen; Tropix/Applied Biosystems, Foster City, Calif.) and the RLU was measured using a ThermoLabSystems luminometer (Waltham, Mass.). The IC50 and fold-resistance were calculated as described above. IC50 values from at least three independent experiments were log10 transformed and compared for statistically significant differences using the two-sample Student's t test.
(§2) Construction of mutant recombinant HIV-1. Mutant recombinant plasmid clones of virus were generated by oligonucleotide site-directed mutagenesis as described previously (Shi, C., and J. W. Mellors. 1997. A recombinant retroviral system for rapid […] analysis of human immunodeficiency virus type 1 susceptibility to reverse transcriptase inhibitors. Antimicrob. Agents Chemother. 41:2781-5), using the p6HRT-MO plasmid. p6HRT-MO contains the entire RT and protease coding sequence as previously described (Le Grice, S. F., and F. Gruninger-Leitch. 1990. Rapid purification of homodimer and heterodimer HIV-1 reverse transcriptase by metal chelate affinity chromatography. Eur. J. Biochem. 187:307-14) and four silent restriction sites (Xma I, Mlu I, Xba I, and NgoM IV from the 5′ to 3′ end of RT at codons 14, 358, 490 and 554, respectively). After site-directed mutagenesis (QIAamp kit, QIAGEN, Valencia, Calif.), the mutated RT was ligated into pxxHIV-1LAI MO that contains the entire genome of HIV-1LAI and the same silent restriction sites as p6HRT-MO. Infectious virus was generated by electroporating the mutated xxHIV-1LAI MO plasmid into MT-2 cells as described above. All mutations in recombinant viruses were confirmed by full-length sequencing of the entire RT coding region.

[2] = test system: HIVLAI RT 67N/70R/215I/371V; assay: as above; type: cell-based, HIV-1
Description: as §1, §2

[3] = test system: HIVLAI RT 67N/70R/215I/509L; assay: as above; type: cell-based, HIV-1
Description: as §1, §2

HIVLAI RT 67N/70R/215I = assay: as above; type: cell-based, HIV-1
Description: as §1, §2

HIVLAI RT 67N/70R/371V = assay: as above; type: cell-based, HIV-1
Description: as §1, §2

HIVLAI RT 67N/70R/509L = assay: as above; type: cell-based, HIV-1
Description: as §1, §2

HIVLAI RT A371V/Q509L = assay: as above; type: cell-based, HIV-1
Description: as §1, §2

HIVLAI RT A371V = assay: as above; type: cell-based, HIV-1
Description: as §1, §2

[4] = test system: HIVLAI RT D67N/K70R/A371V/Q509L; assay: as above; type: cell-based, HIV-1
Description: as §1, §2

[5] = test system: HIVLAI RT D67N/K70R/T215F/A371V/Q509L; assay: as above; type: cell-based, HIV-1
Description: as §1, §2

[6] = test system: HIVLAI RT D67N/K70R/T215F; assay: as above; type: cell-based, HIV-1
Description: as §1, §2

[7] = test system: HIVLAI RT D67N/K70R/T215I/A371V/Q509L; assay: as above; type: cell-based, HIV-1
Description: as §1, §2

HIVLAI RT D67N/K70R = assay: as above; type: cell-based, HIV-1
Description: as §1, §2

HIVLAI RT Q509L = assay: as above; type: cell-based, HIV-1
Description: as §1, §2

[8] = test system: HIV-1 RT mutants with A371V and/or Q509L, alone or in combination with TAMs; assay: Drug susceptibility of site-directed mutants, comparisons between mutants with and without A371V/Q509L; type: cell-based
HIV-1 RT H539N = conditions: H539N mutation; cited from earlier work
[9] = test system: HIV-1 RT D549N with TAMs D67N, K70R, T215Y and K219Q; conditions: D549N present with TAMs D67N; cited from earlier work

Compound Cc1cn([C@H]2C[C@H](N=[N+]=[N-])[C@@H](CO)O2)c(=O)[nH]c1=O [AZT, 3′-azido-3′-dideoxythymidine] has a Fold-Resistance ([1]; 67N/70R/215F/371V compared to wild-type) of 22 fold, an IC50 ([1]; Human immunodeficiency virus 1, P4/R5, 67N/70R/215F/371V, mean ± SD) of 4.9 ± 2.9 µM and a Fold-Resistance ([2]; 67N/70R/215I/371V compared to wild-type) of 2.6 fold. The IC50 ([2]; Human immunodeficiency virus 1, P4/R5, 67N/70R/215I/371V, mean ± SD) was 0.6 ± 0.3 µM, the Fold-Resistance ([3]; 67N/70R/215I/509L compared to wild-type) was 14 fold and the IC50 ([3]; Human immunodeficiency virus 1, P4/R5, 67N/70R/215I/509L, mean ± SD) was 3 ± 2.2 µM. The Fold-Resistance (HIVLAI RT 67N/70R/215I; 67N/70R/215I compared to wild-type) was 1.3 fold, the IC50 (HIVLAI RT 67N/70R/215I; Human immunodeficiency virus 1, P4/R5, 67N/70R/215I, mean ± SD) was 0.3 ± 0.2 µM and the Fold-Resistance (HIVLAI RT 67N/70R/371V; 67N/70R/371V compared to wild-type) was 6.4 fold. The IC50 (HIVLAI RT 67N/70R/371V; Human immunodeficiency virus 1, P4/R5, 67N/70R/371V, mean ± SD) was 1.4 ± 0.5 µM, the Fold-Resistance (HIVLAI RT 67N/70R/509L; 67N/70R/509L compared to wild-type) was 14 fold and the IC50 (HIVLAI RT 67N/70R/509L; Human immunodeficiency virus 1, P4/R5, 67N/70R/509L, mean ± SD) was 3 ± 1 µM. The Fold-Resistance (HIVLAI RT A371V/Q509L; A371V/Q509L compared to wild-type) was 1.7 fold, the IC50 (HIVLAI RT A371V/Q509L; Human immunodeficiency virus 1, P4/R5, A371V/Q509L, mean ± SD) was 0.3 ± 0.06 µM and the Fold-Resistance (HIVLAI RT A371V; A371V compared to wild-type) was 0.7 fold. For the same compound, the IC50 (HIVLAI RT A371V; Human immunodeficiency virus 1, P4/R5, A371V, mean ± SD) was 0.2 ± 0.04 µM, the Fold-Resistance ([4]; 67N/70R/371V/509L compared to wild-type) was 39 fold and the IC50 ([4]; Human immunodeficiency virus 1, P4/R5, 67N/70R/371V/509L, mean ± SD) was 9.1 ± 5.2 µM. It also gave a Fold-Resistance ([5]; 67N/70R/215F/371V/509L compared to wild-type) of 934 fold, an IC50 ([5]; Human immunodeficiency virus 1, P4/R5, 67N/70R/215F/371V/509L, mean ± SD) of 203 ± 40 µM and a Fold-Resistance ([6]; 67N/70R/215F compared to wild-type) of 18 fold. The IC50 ([6]; Human immunodeficiency virus 1, P4/R5, 67N/70R/215F, mean ± SD) was 3.8 ± 2.1 µM, the Fold-Resistance ([7]; 67N/70R/215I/371V/509L compared to wild-type) was 41 fold and the IC50 ([7]; Human immunodeficiency virus 1, P4/R5, 67N/70R/215I/371V/509L, mean ± SD) was 9.4 ± 6.7 µM. The Fold-Resistance (HIVLAI RT D67N/K70R; 67N/70R compared to wild-type) was 4.6 fold, the IC50 (HIVLAI RT D67N/K70R; Human immunodeficiency virus 1, P4/R5, 67N/70R, mean ± SD) was 1.1 ± 0.6 µM and the IC50 (HIVLAI RT Q509L; Human immunodeficiency virus 1, P4/R5, Q509L, mean ± SD) was 0.3 ± 0.2 µM. For the same compound, the Fold-Resistance (HIVLAI RT Q509L; Q509L compared to wild-type) was 1.3 fold, the “greater AZT resistance conferred by T215F than T215I” value ([8]; T215F versus T215I) was roughly 25 fold and the “AZT resistance conferred by A371V and Q509L, alone or together” value ([8]; in the absence of TAMs) was “did not confer AZT resistance”. For the same compound, the “increase in resistance (reduced susceptibility)” value (HIV-1 RT H539N) was 180 fold and the increase in resistance [9] was 1,230 fold.
